Source: US4237225A, “Process for preparing tunicamycin” (priority 1978, dated 1980)

Key:
Assay type in all cases: cell-based
Staphylococcus aureus = experiment: standard paper-disc inhibition test, zone of inhibition, Staphylococcus aureus; settings: in vitro
From the text: (§1) The zones of inhibition, as determined in these tests, are shown below: […]

Bacillus subtilis = experiment: standard paper-disc inhibition test, zone of inhibition, Bacillus subtilis; settings: in vitro
From the text: as §1

[1] = test system: Saccharomyces pastorianus; experiment: standard paper-disc inhibition test, zone of inhibition, Saccharomyces pastorianus; settings: in vitro
From the text: as §1

Neurospora crassa = experiment: standard paper-disc inhibition test, zone of inhibition, Neurospora crassa; settings: in vitro
From the text: as §1

Candida albicans = experiment: standard paper-disc inhibition test, zone of inhibition, Candida albicans; settings: in vitro
From the text: as §1

[2] = test system: certain pathogenic organisms, particularly gram positive bacteria, fungi, and yeasts; experiment: in vitro standard paper-disc inhibition tests (summary statement)
From the text: as §1

Micrococcus luteus = experiment: standard paper-disc inhibition test, zone of inhibition, Micrococcus luteus; settings: in vitro
From the text: as §1

[3] = Bacillus subtilis in minimal medium

| SMILES | Zone Diameter (Staphylococcus aureus) | Zone Diameter (Bacillus subtilis; [3]) | Zone Diameter (Bacillus subtilis; Bacillus subtilis) | Zone Diameter [1] | Zone Diameter (Neurospora crassa) | Zone Diameter (Candida albicans) | growth inhibition of certain pathogenic organisms [2] | Zone Diameter (Micrococcus luteus) |
| --- | --- | --- | --- | --- | --- | --- | --- | --- |
| CC(=O)NC1C(OC2OC(CC(O)C3OC(n4ccc(=O)[nH]c4=O)C(O)C3O)C(O)C(O)C2NC(=O)/C=C/CCCCCCCCCC(C)C)OC(CO)C(O)C1O (stereo not drawn) [Tunicamycin A] | tr (trace (6.5-9 mm)) | 35 mm | 25 mm | 18 mm | 10 mm | 15 mm | inhibit the growth |  |
| CC(=O)NC1C(OC2OC(CC(O)C3OC(n4ccc(=O)[nH]c4=O)C(O)C3O)C(O)C(O)C2NC(=O)/C=C/CCCCCCCCCCC(C)C)OC(CO)C(O)C1O (stereo not drawn) [Tunicamycin B] | tr (trace (6.5-9 mm)) | 29 mm | 19 mm | 23 mm | 10 mm | 12 mm | inhibit the growth | 10 mm |
| CC(=O)NC1C(OC2OC(CC(O)C3OC(n4ccc(=O)[nH]c4=O)C(O)C3O)C(O)C(O)C2NC(=O)/C=C/CCCCCCCCC(C)C)OC(CO)C(O)C1O (stereo not drawn) [Tunicamycin C] |  | 36 mm | 28 mm | 16 mm | 10 mm | 14 mm | inhibit the growth | tr (trace (6.5-9 mm)) |
| CC(=O)NC1C(OC2OC(CC(O)C3OC(n4ccc(=O)[nH]c4=O)C(O)C3O)C(O)C(O)C2NC(=O)/C=C/CCCCCCCCCCCC(C)C)OC(CO)C(O)C1O (stereo not drawn) [Tunicamycin D] | tr (trace (6.5-9 mm)) | 27 mm | 19 mm | 13 mm | tr (trace (6.5-9 mm)) | 11 mm | inhibit the growth | tr (trace (6.5-9 mm)) |
